Columns and labels:
hESCs (HS401 cell line) = test: Lipids and lipid derivatives: visual evaluation of morphology, size and thickness of undifferentiated colonies; type: cell-based, human; details: for morphology of the undifferentiated colonies (in words): in both hES medium and the present culture medium
Text: (§1) FIGS. 9A-9B show the morphology and differentiation stage of hESCs cultured in the present culture medium and in the presence of lipids and lipid derivatives. UD, PD and DIFF represent undifferentiated, partly differentiated and differentiated hESC colonies, respectively. FIG. 9A) HS401 cell line cultured in the present culture medium supplemented with different lipids and lipid derivatives. FIG. 9B) HS401 cell line cultured in control hES medium supplemented with different lipids and lipid derivatives.
Various lipids and lipid derivatives were tested in the culture medium (RegES) according to some embodiments of the present invention and in the conventional hES culture medium containing KO-SR (Knockout serum replacement, Invitrogen). General morphology, as well as the size and thickness of the undifferentiated colonies were evaluated before each passaging based on visual perceptions (Table 7).

[1] = tested on: hESC colonies (HS401 cell line); test: Lipids and lipid derivatives: classification of hESC colonies as undifferentiated, partly differentiated, differentiated; type: cell-based, human
Text: as §1
Furthermore, the hESC colonies were classified into three categories; undifferentiated, partly differentiated and differentiated. Number of each colony type was calculated before each passaging. Later, a percentage value for each colony type of the total amount of colonies was calculated (FIG. 9).

[2] = tested on: human embryonic stem cells; test: Effect of different vitamins on the undifferentiated growth of human embryonic stem cells; type: cell-based; details: for effect on undifferentiated growth / number of undifferentiated colonies (in words): retinol 20 μM, nicotinamide 5 mM and 10 mM, Vitamin Mix 1%
Procedure: The effect of different vitamins on the undifferentiated growth of human embryonic stem cells was tested by providing retinol (20 μM), nicotinamide (5 mM and 10 mM) or commercial Vitamin Mix (1%) containing nicotinamide but not retinol (MEM Vitamin Solution (100x), cat. No. 11120-037, provided by Gibco/Invitrogen) to human embryonic stem cells (Table 1). […] Vitamin Mix had no effect on the undifferentiated growth of embryonic stem cells.
Accordingly, the serum replacement according to some embodiments of the present invention is a xeno-free formulation comprising at least retinol. In some embodiments, the concentration range of retinol in the serum replacement is such that the final culture medium comprises from about 0.25 mg/l to about 0.5 mg/l, more specifically about 0.57 mg/l retinol. Accordingly, in embodiments wherein basal medium is to be supplemented with 20% (vol/vol) serum replacement, said serum replacement comprises retinol from about 1.25 mg/l to about 2.5 mg/l, more specifically about 2.85 mg/l.

[3] = tested on: hESCs (Regea 07/046, HS401); test: Retinol: proliferation and expression of stem cell markers; type: cell-based, human
Procedure: FIG. 10A) Bright-field microscopic image of hESCs (Regea 07/046) at day 3 cultured in the present culture medium without retinol for 5 passages. FIG. 10B) Bright-field microscopic image of hESCs (Regea 07/046) at day 3 cultured in the present culture medium containing 2.0 μM retinol for 5 passages. The size of the colonies is larger in the presence of retinol when compared to the colonies cultured without retinol. Scale bar 500 μm. FIGS. 10C-D) Fluorescent microscopic image of hESCs (HS401) cultured in the present culture medium containing 2.0 μM retinol for 12 passages showing positive expression of
Nanog and TRA-1-81. Insets represent DAPI staining. Scale bar 200 μm. FIG. 10E) Cell proliferation analysis of hESC line Regea 07/046 cultured in the present culture medium without and in the presence of 0.5, 2.0 and 3.5 μM retinol for 10 passages. FIG. 10F) Quantitative RT-PCR analysis of Oct4, GDF3, DNMT3B, TDGF1 and Nanog expression in hESC line Regea 07/046 cultured in the present culture medium without and in the presence of 0.5, 2.0 and 3.5 μM retinol for 10 passages.
Retinol was selected to be further evaluated in the maintenance of undifferentiated hESCs. […] In the presence of 2.0 μM retinol, the growth of the colonies started earlier and already at day 3 the size of the colonies was bigger (FIG. 10A-10B).

hESC line Regea 07/046 = test: Activin A: proliferation assay, FACS and qRT-PCR of pluripotency markers; type: cell-based, human
Procedure: FIG. 11B) Quantitative RT-PCR analysis of Nanog, Oct4, GDF3, DNMT3B, GABRB3 and GDF3 expression in hESC line Regea 07/046 cultured in the present culture medium without and in the presence of 5 ng/ml and 10 ng/ml Activin A and hES control medium for 10 passages. FIG. 11C) FACS analysis of SSEA4 and TRA-1-60 stem cell markers of hESC line Regea 07/046 cultured in the present culture medium without and in the presence of 5 ng/ml and 10 ng/ml Activin A and hES control medium for 10 passages.

[4] = tested on: embryonic stem cell colonies; test: Effect of fetuin and α-fetoprotein on growth rate and size of embryonic stem cell colonies; type: cell-based; details: human serum albumin 10 mg/ml
Procedure: All formulations shown contained human serum albumin at a concentration of 10 mg/ml.
The composition of the formulation according to this embodiment of the present invention was further optimized as described above in Table 2.

[5] = in the present culture medium, compared to control hES or Albumax-RegES medium
[6] = in hES culture medium, compared to control hES medium

Molecule: CC(C)NCC(O)c1ccc(O)c(O)c1 (racemic) [DL-isoproterenol, reference compound]
- Morphology (hESCs (HS401 cell line); RegES medium, 0.1 mg/ml): ++
- Morphology (hESCs (HS401 cell line); hES medium, 0.1 mg/ml): + (poor morphology, uneven edges in the colonies, thin and/or small colonies)
- morphology (in words) (hESCs (HS401 cell line); in hES culture medium): poor morphology and/or excess differentiation
- morphology (in words) (hESCs (HS401 cell line); in the present culture medium): satisfying morphology
- number of undifferentiated and differentiated colonies [1, 5]: number of undifferentiated colonies increased and the number of differentiated colonies decreased

Molecule: CC/C=C\C/C=C\C/C=C\CCCCCCCC(=O)O [Alfa-linoleic acid]
- Morphology (hESCs (HS401 cell line); RegES medium, 5 μg/ml): −/− (excess differentiation of the colonies, poor morphology)
- Morphology (hESCs (HS401 cell line); hES medium, 5 μg/ml): −/− (excess differentiation of the colonies, poor morphology)

Molecule: CCCCC/C=C\C/C=C\C/C=C\C/C=C\CCCC(=O)O [Arachidonic acid]
- number of undifferentiated and differentiated colonies [1, 6]: number of undifferentiated colonies increased and the number of differentiated colonies decreased

Molecule: CC(C)CCC[C@@H](C)[C@H]1CC[C@H]2[C@@H]3CC=C4C[C@@H](O)CC[C@]4(C)[C@H]3CC[C@]12C [Cholesterol]
- number of undifferentiated and differentiated colonies [1, 6]: number of undifferentiated colonies increased and the number of differentiated colonies decreased

Molecule: CCCCC/C=C\C/C=C\C/C=C\CCCCC(=O)O [Gamma-linoleic acid]
- Morphology (hESCs (HS401 cell line); RegES medium, 2.5 μg/ml): − (excess differentiation of the colonies, poor morphology)
- Morphology (hESCs (HS401 cell line); hES medium, 2.5 μg/ml): ++

Molecule: CCCCC/C=C\C/C=C\CCCCCCCC(=O)O [Linoleic acid]
- morphology of the undifferentiated colonies (in words) (hESCs (HS401 cell line)): improved the morphology
- number of undifferentiated and differentiated colonies [1, 5]: number of undifferentiated colonies increased and the number of differentiated colonies decreased

Molecule: NC(=O)c1cccnc1 [Nicotinamide, nicotinamide]
- effect on undifferentiated growth / number of undifferentiated colonies (in words) [2]: promoting their differentiation

Molecule: CCCCCC/C=C\CCCCCCCC(=O)O [Palmitoleic acid]
- morphology of the undifferentiated colonies (in words) (hESCs (HS401 cell line)): improved the morphology
- number of undifferentiated and differentiated colonies [1, 5]: number of undifferentiated colonies increased and the number of differentiated colonies decreased

Molecule: CCCCC[C@H](O)/C=C/[C@H]1[C@H](O)CC(=O)[C@@H]1C/C=C\CCCC(=O)O [Prostaglandin E2]
- Morphology (hESCs (HS401 cell line); RegES medium, 50 ng/ml): − (excess differentiation of the colonies, poor morphology)
- Morphology (hESCs (HS401 cell line); hES medium, 50 ng/ml): + (poor morphology, uneven edges in the colonies, thin and/or small colonies)

Molecule: CCCCC[C@H](O)/C=C/[C@@H]1[C@@H](C/C=C\CCCC(=O)O)[C@@H](O)C[C@H]1O [Prostaglandin F2]
- Morphology (hESCs (HS401 cell line); RegES medium, 50 ng/ml): ++
- Morphology (hESCs (HS401 cell line); hES medium, 50 ng/ml): − (excess differentiation of the colonies, poor morphology)
- morphology (in words) (hESCs (HS401 cell line); in hES culture medium): poor morphology and/or excess differentiation
- morphology (in words) (hESCs (HS401 cell line); in the present culture medium): satisfying morphology

Molecule: CC1=C(/C=C/C(C)=C/C=C/C(C)=C/CO)C(C)(C)CCC1 [Retinol, retinol]
- Nanog relative expression level ([3]; 2.0 μM and 3.5 μM, qRT-PCR): over twentyfold
- proliferation rate ([3]; 2.0 μM or 3.5 μM, compared to without retinol or 0.5 μM): almost two-fold
- proliferation of hESCs and expression of hESC specific markers ([3]; 2.0 μM or above): improved the proliferation of hESCs as well as induced the expression of hESC specific markers
- size of the colonies ([3]; 2.0 μM, day 3): bigger
- morphology and number of undifferentiated colonies ([3]; 0.1-0.5 μM): not effective
- immunocytochemical staining of Nanog and TRA-1-81 ([3]; cultured in the presence of retinol): showed expression of stem cell markers Nanog and TRA-1-81
- maintaining stem cells in an undifferentiated state ([2]; 2 μM): effective
- effect on undifferentiated growth / number of undifferentiated colonies (in words) [2]: increased the number of undifferentiated colonies considerably
- morphology of the undifferentiated colonies (in words) (hESCs (HS401 cell line)): improved the morphology
- number of undifferentiated and differentiated colonies [1, 6]: number of undifferentiated colonies increased and the number of differentiated colonies decreased
- number of undifferentiated and differentiated colonies [1, 5]: number of undifferentiated colonies increased and the number of differentiated colonies decreased

Molecule: CCCCCCCCCCCCCCCCCC(=O)O [Stearic acid]
- morphology (in words) (hESCs (HS401 cell line); in hES culture medium): poor morphology and/or excess differentiation
- morphology (in words) (hESCs (HS401 cell line); in the present culture medium): satisfying morphology
- number of undifferentiated and differentiated colonies [1, 5]: number of undifferentiated colonies increased and the number of differentiated colonies decreased

Molecule: Activin A: Activin A, growth factor supplement of the culture medium
- proliferation rate (hESC line Regea 07/046; 5 or 10 ng/ml in the present culture medium, compared to without Activin A): almost two-fold
- expression of pluripotency supporting markers (hESC line Regea 07/046; FACS and qRT-PCR, transcriptional and translational level): increased the expression

Molecule: Conjugated linoleic acid
- Morphology (hESCs (HS401 cell line); RegES medium, 5 μg/ml): ++
- Morphology (hESCs (HS401 cell line); hES medium, 5 μg/ml): +++ (nice morphology, even, thick and big colonies)
- morphology of the undifferentiated colonies (in words) (hESCs (HS401 cell line)): improved the morphology
- number of undifferentiated and differentiated colonies [1, 6]: number of undifferentiated colonies increased and the number of differentiated colonies decreased
- number of undifferentiated and differentiated colonies [1, 5]: number of undifferentiated colonies increased and the number of differentiated colonies decreased

Molecule: Lysophosphatidylcholine
- Morphology (hESCs (HS401 cell line); RegES medium, 5 μg/ml): ++
- Morphology (hESCs (HS401 cell line); hES medium, 5 μg/ml): − (excess differentiation of the colonies, poor morphology)
- morphology (in words) (hESCs (HS401 cell line); in hES culture medium): poor morphology and/or excess differentiation
- morphology (in words) (hESCs (HS401 cell line); in the present culture medium): satisfying morphology

Molecule: Phosphatidylcholine
- Morphology (hESCs (HS401 cell line); RegES medium, 2.5 μg/ml): − (excess differentiation of the colonies, poor morphology)
- Morphology (hESCs (HS401 cell line); hES medium, 2.5 μg/ml): ++
- number of undifferentiated and differentiated colonies [1, 6]: number of undifferentiated colonies increased and the number of differentiated colonies decreased

Molecule: Phosphatidylethanolamine
- Morphology (hESCs (HS401 cell line); RegES medium, 5 μg/ml): ++
- Morphology (hESCs (HS401 cell line); hES medium, 5 μg/ml): − (excess differentiation of the colonies, poor morphology)
- morphology (in words) (hESCs (HS401 cell line); in hES culture medium): poor morphology and/or excess differentiation
- morphology (in words) (hESCs (HS401 cell line); in the present culture medium): satisfying morphology

B1: F: Fetuin, commercially available fetal carrier protein (protein, UniProt P12763 19-359, looked up)
Alpha-2-HS-glycoprotein: IPLDPVAGYKEPACDDPDTEQAALAAVDYINKHLPRGYKHTLNQIDSVKVWPRRPTGEVYDIEIDTLETTCHVLDPTPLANCSVRQQTQHAVEGDCDIHVLKQDGQFSVLFTKCDSSPDSAEDVRKLCPDCPLLAPLNDSRVVHAVEVALATFNAESNGSYLQLVEISRAQFVPLPVSVSVEFAVAATDCIAKEVVDPTKCNLLAEKQYGFCKGSVIQKALGGEDVRVTCTLFQTQPVIPQPQPDGAEAEAPSAVPDAAGPTPSAAGPPVASVVVGPSVVAVPLPLHRAHYDLRHTFSGVASVESSSGEAFHVGKTPIVGQPSIPGGPVRLCPGRIRYFKI
- concentration that increased colony size and growth rate the most [4]: 0.1 mg/mL

Reference: patent publication US20100081200A1, “FORMULATIONS AND METHODS FOR CULTURING STEM CELLS” (priority 2007, published 2010)
